Data set [1] deals with Platelet. Kind of data set: Antiplatelet activity in Wistar rat platelet rich plasma assessed as inhibition of ADP-induced platelet aggregation at 100 uM pretreated for 1 min followed by ADP addition by turbidimetric method relative to control. The data set is classed as functional.
In data set [2] the test system is Mus musculus. Kind of data set: Antinociceptive activity in Swiss albino mouse assessed as decrease in number of acetic acid-induced abdominal constriction at 100 umol/kg, po pretreated for 1 hr followed by acetic-acid challenge for 10 mins measured for 20 mins relative to control. The data set is classed as functional. Set-up: scale not given: the % may be the effect or the level left.

For data set [3], the system named is Macrophage. Kind of data set: Cytotoxicity against LPS-induced Swiss albino mouse macrophages assessed as cell viability at 6.2 to 50 uM after 24 hrs by MTT assay relative to control. The data set is classed as functional. For orientation: Tetrazolium dyes change colour on reduction, which living cells bring about.
In data set [4] the test system is CHO-K1. Kind of data set: Mutagenicity in CHOK1 cells assessed as nuclear division index at 0.3 ug/ml after 24 hrs by Giemsa staining based microscopic analysis (reference value: 1.701 +/- 0.002). The note with it: chinese hamster, cho-k1, 24 h. The data set is classed as toxicity, cell-based, Cricetulus griseus.
Data set [5] deals with Macrophage. Kind of data set: Inhibition of LPS-induced TNFalpha production in Swiss albino mouse macrophages at 12.5 uM after 24 hrs by ELISA relative to control. The data set is classed as functional. (In general: An ELISA detects its analyte on a solid surface through an enzyme-linked reagent.)
Data set [6] has as its system Macrophage. Kind of data set: Inhibition of LPS-induced TNFalpha production in Swiss albino mouse macrophages at 25 uM after 24 hrs by ELISA relative to control. The data set is classed as functional.
Data set [7] concerns Macrophage. Kind of data set: Inhibition of LPS-induced TNFalpha production in Swiss albino mouse macrophages at 50 uM after 24 hrs by ELISA relative to control. The data set is classed as functional.
In data set [8] the test system is CHO-K1. Kind of data set: Mutagenicity in CHOK1 cells assessed as nuclear division index at 25 uM after 24 hrs by Giemsa staining based microscopic analysis (reference value: 1.701 +/- 0.002). The data set is classed as toxicity, cell-based, Cricetulus griseus. The note with it: chinese hamster, cho-k1, 24 h.
For data set [9], the system named is CHO-K1. Kind of data set: Genotoxicity in CHOK1 cells assessed as increase in commet tail at 100 uM after 24 hrs by commet assay. The data set is classed as toxicity, cell-based, Cricetulus griseus. The note with it: chinese hamster, cho-k1, 24 h.
Data set [10] concerns CHO-K1. Kind of data set: Mutagenicity in CHOK1 cells assessed as nuclear division index at 50 uM after 24 hrs by Giemsa staining based microscopic analysis (reference value: 1.701 +/- 0.002). The data set is classed as toxicity, cell-based, Cricetulus griseus. The note with it: chinese hamster, cho-k1, 24 h.
Data set [11] deals with CHO-K1. Kind of data set: Mutagenicity in CHOK1 cells assessed as frequency of micronucleus binucleated cells at 25 to 100 uM after 24 hrs by Giemsa staining based microscopic analysis. The data set is classed as toxicity, cell-based, Cricetulus griseus. The note with it: chinese hamster, cho-k1, 24 h.
Data set [12] relates to CHO-K1. Kind of data set: Mutagenicity in CHOK1 cells assessed as nuclear division index at 100 uM after 24 hrs by Giemsa staining based microscopic analysis (reference value: 1.701 +/- 0.002). The note with it: chinese hamster, cho-k1, 24 h. The data set is classed as toxicity, cell-based, Cricetulus griseus.
For data set [13], the system named is CHO-K1. Kind of data set: Genotoxicity in CHOK1 cells assessed as increase in tail moment at 25 to 100 uM after 24 hrs by commet assay. The data set is classed as toxicity, cell-based, Cricetulus griseus. The note with it: chinese hamster, cho-k1, 24 h.
A short description of data set [14]: Stability of the compound in pH 7.4 phosphate buffered saline assessed as compound hydrolysis after 4 hrs by UV-HPLC analysis. The data set is classed as physicochemical. The note with it: read-out: Drug degradation.
In data set [15] the test system is Macrophage. Kind of data set: Inhibition of LPS-induced TNFalpha production in Swiss albino mouse macrophages at 6.2 uM after 24 hrs by ELISA relative to control. The data set is classed as functional.
Data set [16] deals with MAP kinase p38 (Homo sapiens) (UniProt O15264+Q15759+Q16539+P53778). Kind of data set: Activation of p38 MAPK phosphorylation in human K562 cells at 6.7 to 100 uM by Western blot analysis. The data set is classed as cell-based.
In data set [17] the test system is K562. Kind of data set: Activation of histone H3/H4 acetylation in human K562 cells assessed as increase in […] expression at 25 to 100 uM after 96 hrs by Western blot analysis. The data set is classed as cell-based. For orientation: In western blotting, separated proteins are transferred to a membrane and probed.
For data set [18], the target named is Histone H4 (Homo sapiens) (UniProt P62805). Kind of data set: Activation of histone H4 acetylation in human K562 cells at 6.7 to 100 uM after 24 hrs by Western blot analysis. The data set is classed as cell-based.
The subject of data set [19] is K562. Kind of data set: Activation of histone H3 acetylation in human K562 cells at 6.7 to 100 uM after 24 hrs by Western blot analysis. The data set is classed as cell-based.
Data set [20] relates to CHO-K1. Kind of data set: Cytotoxicity against CHOK1 cells assessed as reduction in cell viability at 100 uM after 24 hrs by XTT assay relative to control. The data set is classed as cell-based, Cricetulus griseus. The note with it: chinese hamster, cho-k1, 24 h.
In data set [21] the test system is CHO-K1. Kind of data set: Cytotoxicity against CHOK1 cells assessed as reduction in cell viability at 50 uM after 24 hrs by XTT assay relative to control. The data set is classed as cell-based, Cricetulus griseus. The note with it: chinese hamster, cho-k1, 24 h.
Data set [22] concerns CHO-K1. Kind of data set: Cytotoxicity against CHOK1 cells assessed as reduction in cell viability at 25 uM after 24 hrs by XTT assay relative to control. The data set is classed as cell-based, Cricetulus griseus. The note with it: chinese hamster, cho-k1, 24 h.
Data set [23] has as its system CHO-K1. Kind of data set: Mutagenicity in CHOK1 cells assessed as frequency of micronucleus at 25 to 100 uM after 24 hrs by Giemsa staining based microscopic analysis. The data set is classed as toxicity, cell-based, Cricetulus griseus. The note with it: chinese hamster, cho-k1, 24 h.
For data set [24], the system named is K562. Kind of data set: Activation of histone H3/H4 acetylation in human K562 cells assessed as increase in […] expression at 6.7 to 12.5 uM after 48 hrs by Western blot analysis. The data set is classed as cell-based.
In data set [25] the test system is K562. Kind of data set: Activation of histone H3/H4 acetylation in human K562 cells assessed as induction of […] production at 100 uM after 96 hrs by Western blot analysis. The data set is classed as cell-based.
For data set [26], the system named is K562. Kind of data set: Activation of histone H3 acetylation in human K562 cells at 100 uM after 24 hrs by Western blot analysis. The data set is classed as cell-based.

The source made the active and inactive calls. The calls are words filed in the database; no cut-off is given here.

The term inhibition denotes the drop in the measured response relative to a control, in per cent. As to `O=C(N/N=C/c1c(-c2ccccc2)no[n+]1[O-])c1ccc(N2C(=O)c3ccccc3C2=O)cc1`, the inhibition at 100 µM in data set [1] amounted to 26.5%. The Activity in [2] is 44.8%; in data set [3], greater than 75%.

As to `O=C(N/N=C/c1ccc2no[n+]([O-])c2c1)c1cccc(N2C(=O)c3ccccc3C2=O)c1`, in data set [1], the inhibition at 100 µM came to 1.2%. Besides, the values for the Activity in data set [2] and in data set [3] were 40.5% and greater than 75%, respectively.

`COc1cccc2c1C(=O)c1c(O)c3c(c(O)c1C2=O)C[C@@](O)(C(=O)CO)C[C@@H]3O[C@H]1C[C@H](N)[C@H](O)[C@H](C)O1` [DOXORUBICIN]: the Activity_index in data set [4] was found to be 1.683.

For the compound `Cc1c(N(C)CS(=O)(=O)[O-])c(=O)n(-c2ccccc2)n1C.[Na+]` [DIPYRONE SODIUM], the Activity in [2] is reported as 35%.

In the case of `CC(=O)Oc1ccccc1C(=O)O` [ASPIRIN], in [1], the inhibition at 100 µM turned out to be 5%.

For `O=C(N/N=C/c1ccc2no[n+]([O-])c2c1)c1ccc(N2C(=O)c3ccccc3C2=O)cc1`, in [1], the inhibition at 100 µM came to 2.8%. For the same compound, the Activity in data set [2] was 48.3%; in data set [3] it was greater than 75%. In data set [5], this compound registered an inhibition at 12.5 µM of 99.9%. This compound showed an inhibition at 25 µM in data set [6] of 99.5%. In [7], this compound returned an inhibition at 50 µM of 54.5%.

As to `O=C(N/N=C/c1ccc2no[n+]([O-])c2c1)c1ccccc1N1C(=O)c2ccccc2C1=O`, the inhibition at 100 µM in data set [1] was determined as 0%. In addition, the Activity in data set [2] is recorded as 30.5%.

As for `O=C1CCC(N2C(=O)c3ccccc3C2=O)C(=O)N1` (configuration not stated) [THALIDOMIDE], the inhibition at 50 µM in data set [7] was 31.7%.

In the case of `O=C(N/N=C/c1ccc(Oc2no[n+]([O-])c2S(=O)(=O)c2ccccc2)cc1)c1ccc(N2C(=O)c3ccccc3C2=O)cc1`, the Activity_index stood at 1.691 in data set [8], 1.69 in [10] and 1.697 in data set [12]. Besides, the Activity result is recorded as “Non-Toxic” in [9]; “Non-Toxic” in data set [11]; “Non-Toxic” in data set [13]; 50.1% in data set [2]; greater than 75% in [3]; “<= 30%” in data set [20]. Further, the Activity in data set [21] is listed as 14%; in data set [22], 4%; in [23], “Non-Toxic”. For the same compound, the degraded at 4 h in data set [14] worked out at 30%. In addition, the inhibition at 100 µM in [1] is 76.1%. The same compound gave an inhibition at 6.2 µM in data set [15] of 41%. For the same compound, the inhibition at 12.5 µM in data set [5] came to 54.2%. This compound also displayed an inhibition at 25 µM in data set [6] of 76.5%. Also, the result in [16] and in [18] was inactive. The outcome in data set [17] and in data set [19] was Active.

In the case of `O=C(N/N=C/c1c(-c2ccccc2)no[n+]1[O-])c1ccccc1N1C(=O)c2ccccc2C1=O`, the inhibition at 100 µM in data set [1] is 17.2%. The Activity in [2] is 36.2%.

As to `O=C(N/N=C/c1cccc(Oc2no[n+]([O-])c2S(=O)(=O)c2ccccc2)c1)c1ccc(N2C(=O)c3ccccc3C2=O)cc1`, the inhibition at 100 µM in [1] is 84%. Moreover, the Activity is reported as 42% in data set [2] and greater than 75% in data set [3]. In addition, at 6.2 µM the inhibition in data set [15] was 61%. The same compound showed an inhibition at 12.5 µM in data set [5] of 64.9%. Further, in data set [6], testing at 25 µM gave an inhibition of 73.6%. In addition, in data set [16], the result was inactive. For the same compound, the result in [24], in data set [25], in data set [26] and in data set [18] was Active.

(Values after ChEMBL document CHEMBL4270527, “Discovery of phenylsulfonylfuroxan derivatives as gamma globin inducers by histone acetylation” (Eur J Med Chem, 2018).)
